Measured values taken from article PMC7405012, “Detection of Chaetomium globosum, Ch. cochliodes and Ch. rectangulare during the Diversity Tracking of Mycotoxin-Producing Chaetomium-like Isolates Obtained in Buildings in Finland” (Toxins, 2020).
≈ marks a conversion by molar mass, not a printed value. Read-outs that look alike come from different tables or passages of the source.

Tests used:
[1] = test system: murine neuroblastoma cells (MNA); experiment: Inhibition of cell proliferation (ICP) assay, MNA; assay type: cell-based
Method: The plate-grown biomass of the fungal pure cultures (100–300 mg) was extracted with ethanol as described earlier. The toxicity assays, namely BSMI assay after exposure for 30 min (rapid inhibition) and for one day (slow inhibition), SMID assay and ICP assay, were all described previously. The toxicity assays involving the ethanol extracts obtained from pure fungal cultures were performed using porcine cells (sperms and somatic cell lines) as indicators according to methods described before. The calculation of EC50—the half maximal effective concentration for the ethanol-dry substances and pure mycotoxins in the BSMI, SMID and ICP assays—were described previously.
The continuous cell line PK-15 (porcine kidney cells) and a malignant cell line (MNA cell line) provided by EVIRA (Helsinki, Finland) were used in the ICP assay. 5,5′,6,6′-tetrachloro-1,1′,3,3′-tetraethyl-benzimidazolylcarbocyanine iodide (JC-1, 3520-43-2), PI (25535-16-4) and calcein-AM (148504-34-1) were obtained from Invitrogen (Carlsbad, CA, USA). Alamethicin A4665 (T. arundinaceum) (CAS 27061-78-5), a mixture of alamethicin F50 peptaibols (MW 1962, 1976, 1976 and 1990), chaetoglobosin A (CAS 50335-03-0), sterigmatocystin (CAS 10048-13-5) and ochratoxin A (CAS 303-47-9) were obtained from Sigma-Aldrich (St. Louis, MO, USA). Malt extract and tryptic soy agar were obtained from Scharlab (Barcelona, Spain). The other chemicals were of analytical grade and were purchased from local suppliers. The biocides and the wetting agent Genapol-080 were purchased from Sigma-Aldrich Finland. The fungicide Boracol 10Rh was obtained from a local supplier. The selected biocides were Borax (600 µg mL^−1; sodium tetraborate, CAS: 1330-43-4), Boracol 10Rh containing disodium octaborate tetrahydrate (CAS: 12280-03-04) and didecyldimethylammonium chloride [CAS: 7173-51-5]), PHMB (CAS: 27083-27-8), phenoxyethanol (CAS: 122-99-6), chloramine, triclosan (5-Chloro-2-(2,4-dichlorophenoxy)phenol, CAS: 3380-34-5) and the wetting agent Genapol X-080 (CAS: 9043-30-5). Genapol X-080 and the biocides were purchased from Sigma-Aldrich, except for Boracol 10Rh, which was purchased from a local supplier.

Penicillium sp. 5/skk = experiment: Resistance to biocides: conidial germination; assay type: cell-based; conditions: strain 5/skk, indoor Penicillium sp.
Method: (§1) The toxicity of biocides and chemicals towards the indoor Chaetomium-like isolates and the reference indoor strains of the genera Aspergillus, Paecilomyces, Penicillium and Trichoderma was assessed in parallel with the six parameters presented in the Supplementary Materials: (1) germ tube assay (Figure S3); (2) estimation of turbidity (Figure S4); (3) visual emission of fluorescence (excitation at 360 nm); (4) visual resporulation of conidia; (5) inhibition of glucose consumption; and (6) resazurin reduction. All assays were performed in malt extract broth (12 g L^−1 malt extract, 7.2 µmol mL^−1 glucose, pH 5.5; Scharlab, Barcelona, Spain) in 96-well microtiter plates as described for the ICP assay.
(§2) The assays measuring inhibition of germination of conidia were done with spore suspensions of 1–2 × 10^6 fungal spores mL−^1. The tests were performed in malt extract broth (Oxoid, Hampshire United Kingdom) 12 g in 1 L, pH 5.5, glucose 7.1 mmol L^−1, and performed on microtiter plates as described by Bencsik et al. for the ICP assay. The germ tube germination is visualized in Figure S3, and the tests estimating turbidity and emission of fluorescence provoked by the germinated and metabolically active conidia and C. globosum ascospores are visualized in Figures S4 and S5. Examples of the tests estimating fluorescence emission, turbidity and re-sporulation of conidia and ascospores are compared in Figure S5. The difference of the endpoints measured with the different assays was between […]. The resazurin reduction assays (Figure S6) were performed as described for the ICP assay, except that the microtiter plates were visually inspected for the change of the blue/violet color of resazurin (indicating inhibition of germination of the exposed conidia) to the […] (indicating metabolic activity and germination of the exposed conidia).
(§3) The formation of germ tubes was inspected by a phase-contrast microscope (Olympus CKX41, Tokyo, Japan; magnification 400×) and an image recording software (Cellsense® standard version 11.0.06, Olympus Soft Imaging Solutions GmbH, Münster, Germany, 2012) after 1 and 2 days of incubation at 28 °C. The EC50 corresponded to the inhibition of 50% (estimated as the concentration between EC0 and EC100) of the conidia compared to the ethanol control (the growth medium containing 1% of ethanol). The tests were run in triplicate and calibrated with triclosan (CAS: 3380-34-5; Sigma Chemical Co., St. Louis, MO, USA) giving a mean SD of ±<20%.

Ch. rectangulare M015 = experiment: Resistance to biocides: ascospore germination; assay type: cell-based; conditions: strain M015, indoor Ch. rectangulare
Method: as §1, §2, §3

Ch. cochliodes OT7 = experiment: Resistance to biocides: ascospore germination; assay type: cell-based; conditions: strain OT7, indoor Ch. cochliodes
Method: as §1, §2, §3

Ch. cochliodes OT7b = experiment: Resistance to biocides: ascospore germination; assay type: cell-based; conditions: strain OT7b, indoor Ch. cochliodes
Method: as §1, §2, §3

[2] = test system: porcine kidney cells (PK-15); experiment: cells; assay type: cell-based
[3] = test system: Outdoor T. atroviride SZMC 1723; experiment: Resistance to biocides: conidial germination; assay type: cell-based, Trichoderma atroviride; conditions: strain SZMC 1723, outdoor T. atroviride
Method: as §1, §2, §3

[4] = test system: Outdoor T. atroviride SZMC 12474; experiment: Resistance to biocides: conidial germination; assay type: cell-based, Trichoderma atroviride; conditions: strain SZMC 12474, outdoor T. atroviride
Method: as §1, §2, §3

[5] = test system: Outdoor T. atroviride SZMC 12323; experiment: Resistance to biocides: conidial germination; assay type: cell-based, Trichoderma atroviride; conditions: strain SZMC 12323, outdoor T. atroviride
Method: as §1, §2, §3

[6] = test system: Outdoor T. atroviride SZMC 12516; experiment: Resistance to biocides: conidial germination; assay type: cell-based, Trichoderma atroviride; conditions: strain SZMC 12516, outdoor T. atroviride
Method: as §1, §2, §3

[7] = test system: Outdoor T. atroviride SZMC 12541; experiment: Resistance to biocides: conidial germination; assay type: cell-based, Trichoderma atroviride; conditions: strain SZMC 12541, outdoor T. atroviride
Method: as §1, §2, §3

[8] = test system: Outdoor T. atroviride SZMC 207080; experiment: Resistance to biocides: conidial germination; assay type: cell-based, Trichoderma atroviride; conditions: strain SZMC 207080, outdoor T. atroviride
Method: as §1, §2, §3

[9] = Mus musculus, Neuroblastoma cell, mammalian cell line MNA (ICT assay), read-out: EC50
[10] = Sus scrofa, mammalian cell line PK-15 (ICT assay), read-out: EC50
[11] = Trichoderma atroviride, read-out: EC50
[12] = mammalian cell line MNA (ICT assay)
[13] = mammalian cell line PK-15 (ICT assay)

Row | Molecule | EC50 [1, 9] | EC50 (Penicillium sp. 5/skk; SP.5/SKK, read-out: EC50) | EC50 (Ch. rectangulare M015; read-out: EC50) | EC50 (Ch. cochliodes OT7; read-out: EC50) | EC50 (Ch. cochliodes OT7b; read-out: EC50) | EC50 [2, 10] | EC50 [3, 11] | EC50 [4, 11] | EC50 [5, 11] | EC50 [6, 11] | EC50 [7, 11] | EC50 [8, 11] | EC50 [1, 12] | EC50 (Penicillium sp. 5/skk) | EC50 (Ch. rectangulare M015) | EC50 [2, 13] | EC50 [3] | EC50 [4] | EC50 [5] | EC50 [6] | further results
1 | O=BOB(O)OB(O)OB=O [Borax, sodium tetraborate] | 150 µg/mL | 2500 µg/mL | 5000 µg/mL | 750 µg/mL | 750 µg/mL | 600 µg/mL | 1200 µg/mL | 2500 µg/mL | 1200 µg/mL | 2500 µg/mL | 1200 µg/mL | 1200 µg/mL | – | – | – | – | – | – | – | – | –
2 | C/C1=C\[C@@H](C)C/C=C/[C@H]2[C@@H]3O[C@]3(C)[C@@H](C)[C@H]3[C@H](Cc4c[nH]c5ccccc45)NC(=O)[C@]32C(=O)/C=C/C(=O)[C@@H]1O [Chaetoglobosin A, chaetoglobosin A] | – | – | – | – | – | – | – | – | – | – | – | – | – | – | – | – | – | – | – | – | EC50 ([1]; Mus musculus, Neuroblastoma cell, 48 h, MNA, 2 days, 37 °C, read-out: EC50 ICP MNA 2 days): 1 µg/mL (≈ 1.89 µM); EC50 ([2]; Sus scrofa, 48 h, PK-15, 2 days, 37 °C, read-out: EC50 ICP PK-15 2 days): 3 µg/mL (≈ 5.67 µM)
3 | NCl [Chloramine, chloramine] | – | – | – | – | – | – | – | – | – | – | – | – | 80 µg/mL (≈ 1550 µM) | 600 µg/mL (≈ 11700 µM) | 1200 µg/mL (≈ 23300 µM) | 150 µg/mL (≈ 2910 µM) | 2500 µg/mL (≈ 48600 µM) | 2500 µg/mL (≈ 48600 µM) | 2500 µg/mL (≈ 48600 µM) | 2500 µg/mL (≈ 48600 µM) | EC50 [7]: 2500 µg/mL (≈ 48600 µM); EC50 [8]: 2500 µg/mL (≈ 48600 µM)
4 | OCCOc1ccccc1 [Phenoxy-ethanol, phenoxyethanol] | 400 µg/mL (≈ 2900 µM) | 1500 µg/mL (≈ 10900 µM) | 1500 µg/mL (≈ 10900 µM) | 3000 µg/mL (≈ 21700 µM) | 3000 µg/mL (≈ 21700 µM) | 1500 µg/mL (≈ 10900 µM) | 1500 µg/mL (≈ 10900 µM) | 3000 µg/mL (≈ 21700 µM) | 1500 µg/mL (≈ 10900 µM) | 1500 µg/mL (≈ 10900 µM) | 1500 µg/mL (≈ 10900 µM) | 3000 µg/mL (≈ 21700 µM) | – | – | – | – | – | – | – | – | –
5 | Oc1cc(Cl)ccc1Oc1ccc(Cl)cc1Cl [Triclosan, 5-Chloro-2-(2,4-dichlorophenoxy)phenol] | 4 to 8 µg/mL (≈ 13.8 to 27.6 µM) | 2 µg/mL (≈ 6.91 µM) | 2 µg/mL (≈ 6.91 µM) | 4 µg/mL (≈ 13.8 µM) | 4 µg/mL (≈ 13.8 µM) | 8 to 15 µg/mL (≈ 27.6 to 51.8 µM) | 16 µg/mL (≈ 55.3 µM) | 8 µg/mL (≈ 27.6 µM) | 30 µg/mL (≈ 104 µM) | 16 µg/mL (≈ 55.3 µM) | 16 µg/mL (≈ 55.3 µM) | 8 µg/mL (≈ 27.6 µM) | – | – | – | – | – | – | – | – | –
6 | polyhexamethylene biguanide hydrochloride [PHMB] | – | – | – | – | – | – | – | – | – | – | – | – | 4 µg/mL | 8 µg/mL | 4 µg/mL | 15 µg/mL | 8 µg/mL | 4 µg/mL | 8 µg/mL | 30 µg/mL | EC50 (Ch. cochliodes OT7): 8 µg/mL; EC50 (Ch. cochliodes OT7b): 8 µg/mL; EC50 [7]: 2 µg/mL; EC50 [8]: 8 µg/mL
